Holding throughout (assay type): cell-based, Escherichia coli
One experiment concerns EKO-35 gyrB (pCA24N). Nature of the experiment: MIC of strains harboring ASKA plasmids. To be noted: 0.1 mM IPTG; for MIC: EKO-35 gyrB.
The test system of another experiment is EKO-35 pitA (pCA24N). Nature of the experiment: MIC of strains harboring ASKA plasmids. To be noted: 0.1 mM IPTG.
The next experiment concerns EKO-35 yjfC (pCA24N). Kind of experiment: MIC of strains harboring ASKA plasmids. The following applies: 0.1 mM IPTG; for MIC: EKO-35 yjfC.
The subject of a further experiment is EKO-35 rspA (pCA24N). Kind of experiment: MIC of strains harboring ASKA plasmids. To be noted: 0.1 mM IPTG; for MIC: EKO-35 rspA.
A further experiment relates to EKO-35 tufA (pCA24N). Kind of experiment: MIC of strains harboring ASKA plasmids. To be noted: 0.1 mM IPTG; for MIC: EKO-35 tufA.
Experiment [1] deals with EKO-35-Pore strains with integrated AcrB, AcrEF, AcrD, MdtEF with pGDP2:emrE or empty pGDP-2. Kind of experiment: Efflux pump interplay MIC profiling (pGDP2:emrE), porinated. To be noted: for MIC / Fold Change from EKO-35: Pore +. An excerpt: This plasmid enables single-copy genomic integration of a selected gene through integration into the nonessential araC gene within the arabinose operon (Cox, G. et al., 2022). All E. coli genes were amplified from E. coli BW25113 genomic DNA, and mexCD was amplified from P. aeruginosa PAO1, using a high-fidelity polymerase, followed by ligation into pINT2. Successful clones were verified using PCR (Primers: pLac-Fwd/pINT-Rev, Table 4) and confirmed via Sanger sequencing at The Centre for Applied Genomics (TCAG) (The Hospital for Sick Children) and the AAC (University of Guelph). For the interplay studies, this process was repeated using the pGDP2 plasmid (Cox, G. et al., 2022).
To enable comparison between efflux production in different genetic backgrounds, each efflux pump-encoding gene was also integrated into the genome of the wild-type BW25113 strain, the single gene deletion mutant from the Keio Collection, and EKO-35. Strains of interest were propagated on LB agar at 37° C. Cell inoculum was prepared using the colony resuspension method and applied to a 96-well well plate (VWR) in technical duplicate, and the minimum inhibitory concentrations were determined according to Clinical & Laboratory Standards Institute (CLSI) protocols in MHB II (Patel J. B. et al, 2015). The plates were incubated for 18 h (Multitron Shaker, Infors HT) at 37° C. with aeration at 900 rpm. The plates were equilibrated to room temperature before the OD600 nm was measured using a BioTek Synergy H1 microplate reader. For interplay profiling, blank subtracted OD600 nm values >0.1 were considered to represent growth.
To investigate, the EKO-35-Pore strains were profiled using the same approach.

The test system of experiment [2] is EKO-35 porinated strain expressing acrD. Kind of experiment: Checkerboard synergy (FICI), porinated strain. To be noted: for interaction of PAβN in combination with the labelled antibiotic (FICI): acrD expressed in the porinated strain. The method in brief: (§1)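 Inocula prepared from resuspended colonies were exposed to PAβN or NMP combined with antibiotics in MHB II checkerboards. Growth was scored by OD600 to define MICs. FICI then classified the interaction, with values under 0.5 counted as synergistic.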

The subject of experiment [3] is EKO-35-Pore strains producing other efflux pumps. Nature of the experiment: Checkerboard synergy (FICI), porinated strain. Put shortly: as §1
Experiment [4] deals with EKO-35 porinated strain expressing acrF (AcrEF). Nature of the experiment: Checkerboard synergy (FICI), porinated strain. To be noted: for PABN MICa Alone: PAβN alone, one value per checkerboard. Put shortly:
as §1

The subject of experiment [5] is EKO-35-Pore expressing the P. aeruginosa pump mexCD. Nature of the experiment: Checkerboard synergy (FICI), porinated strain. Put shortly:
as §1

The mark [6] stands for this setting: 4 μg/mL chloramphenicol selection.
Where [7] appears, read: EKO-35 acrD Pore, PAβN + antibiotic.
Where [8] appears, read: EKO-35 mdtEF Pore, PAβN + antibiotic.
Setting [9] is: EKO-35 acrEF Pore, NMP + antibiotic.
Where [10] appears, read: EKO-35 acrEF Pore, PAβN + antibiotic.
Setting [11] is: strain EKO-35 acrEF Pore, NMP + antibiotic.
[12] abbreviates: EKO-35 mexCD Pore, NMP + antibiotic.
[13] abbreviates: EKO-35 mexCD Pore, PAβN + antibiotic.
[14] abbreviates: strain EKO-35 mexCD Pore, NMP + antibiotic.

Values joined by “and” are separate entries in the source; they are usually repeats but may differ in a detail not shown here. Identical values can stand only once. Like-named read-outs stand apart in the source and are kept apart here.

By MIC is commonly meant the lowest concentration that inhibits growth of the organism.

With benzalkonium chloride, the MIC came out at 0.781 µg/mL in the experiment with EKO-35 gyrB (pCA24N) (Chlor + (4 μg/mL)); 0.781 µg/mL with EKO-35 gyrB (pCA24N) (Chlor −); 0.781 µg/mL with EKO-35 pitA (pCA24N) (EKO-35 pitA, Chlor −); 0.781 µg/mL in the experiment with EKO-35 yjfC (pCA24N) (Chlor + (4 μg/mL)); 0.781 µg/mL in the experiment with EKO-35 yjfC (pCA24N) (Chlor −); 0.781 µg/mL with EKO-35 rspA (pCA24N) (Chlor + (4 μg/mL)). Moreover, the MIC in the experiment on EKO-35 rspA (pCA24N) (Chlor −), in the experiment on EKO-35 tufA (pCA24N) (Chlor + (4 μg/mL)) and with EKO-35 tufA (pCA24N) (Chlor −) was 0.781 µg/mL throughout.
As to `O=C(Nc1ccccc1C(=O)Nc1nnc(C(F)(F)F)s1)c1ccccc1Cl` [compound 19], the “MIC, EKO-35 gyrB (pCA24N), Chlor +” value with EKO-35 gyrB (pCA24N) (setting [6]) is greater than 5 μg/mL. In addition, the “MIC, EKO-35 gyrB (pCA24N), Chlor −” value with EKO-35 gyrB (pCA24N) (no plasmid selection) was greater than 5 μg/mL. In addition, the “MIC, EKO-35 pitA (pCA24N), Chlor −” value with EKO-35 pitA (pCA24N) (no plasmid selection) is greater than 5 μg/mL. Moreover, the “MIC, EKO-35 yjfC (pCA24N), Chlor +” value in the experiment on EKO-35 yjfC (pCA24N) (setting [6]) is greater than 5 μg/mL. In the experiment on EKO-35 yjfC (pCA24N) (no plasmid selection), the “MIC, EKO-35 yjfC (pCA24N), Chlor −” value is greater than 5 μg/mL. Moreover, the “MIC, EKO-35 rspA (pCA24N), Chlor +” value in the experiment on EKO-35 rspA (pCA24N) (setting [6]) is recorded as greater than 5 μg/mL. Moreover, the “MIC, EKO-35 rspA (pCA24N), Chlor −” value in the experiment with EKO-35 rspA (pCA24N) (no plasmid selection) is listed as greater than 5 μg/mL. The “MIC, EKO-35 tufA (pCA24N), Chlor +” value with EKO-35 tufA (pCA24N) (setting [6]) is greater than 5 μg/mL. Also, in the experiment on EKO-35 tufA (pCA24N) (no plasmid selection), the “MIC, EKO-35 tufA (pCA24N), Chlor −” value is greater than 5 μg/mL.
With `COc1cc(Cc2cnc(N)nc2N)cc(OC)c1OC` [trimethoprim], in the experiment on EKO-35 yjfC (pCA24N) (Chlor + (4 μg/mL)), the MIC amounted to 0.391 µg/mL.
As for `CO[C@@H]1[C@@H](OC(N)=O)[C@@H](O)[C@H](Oc2ccc3c(O)c(NC(=O)c4ccc(O)c(CC=C(C)C)c4)c(=O)oc3c2C)OC1(C)C` [novobiocin], in experiment [1] (EKO-35-Pore, AcrB, AcrEF, AcrD, MdtEF combined with pEmrE), the “interplay of EmrE with tripartite efflux pumps on resistance” value was “Interplay was not observed”. The MIC in experiment [1] (strain EKO-35) was 0.391 µg/mL; in experiment [1] (strain EKO-35 pEmrE) it was 0.391 µg/mL; in experiment [1] (strain acrB pEmrE), 100 µg/mL; in experiment [1] (strain acrB), 100 µg/mL; in experiment [1] (strain acrD), 25 µg/mL; in experiment [1] (strain mdtEF pEmrE), 1.56 µg/mL. Moreover, the MIC was 3.13 µg/mL in [1] (strain mdtEF) and 25 µg/mL in the experiment with EKO-35 gyrB (pCA24N) (Escherichia coli, Chlor + (4 μg/mL), read-out: MIC). The “Fold Change from EKO-35” value amounted to 1 in [1] (strain EKO-35 pEmrE); 256 in experiment [1] (strain acrB pEmrE); 256 in [1] (strain acrB); 16 in experiment [1] (strain acrD pEmrE); 64 in experiment [1] (strain acrD); 32 in experiment [1] (strain acrEF pEmrE). The “Fold Change from EKO-35” value in experiment [1] (strain acrEF) is on record as 32; in experiment [1] (strain mdtEF pEmrE) it was 4; in experiment [1] (strain mdtEF), 8. For the same compound, the Effect result in experiment [2] (setting [7]) is reported as “Additive”. Besides, the FICI in experiment [2] (setting [7]) was 0.563. Moreover, the “MICb Alone” value in experiment [2] (EKO-35 acrD Pore, antibiotic alone (PAβN checkerboard)) came out at 16 µg/mL. Further, the “MICb Combined” value in [2] (EKO-35 acrD Pore, antibiotic in combination with PAβN) is 1 µg/mL. Moreover, the “interaction of PAβN in combination with the labelled antibiotic (FICI)” value in experiment [2] is reported as “synergy was lost”. Moreover, in the experiment with EKO-35 gyrB (pCA24N) (ASKA plasmid), the “effect of gyrB overexpression on resistance of EKO-35” value is “increased novobiocin resistance”.
As for `CC[C@H]1OC(=O)[C@H](C)[C@@H](O[C@H]2C[C@@](C)(OC)[C@@H](O)[C@H](C)O2)[C@H](C)[C@@H](O[C@@H]2O[C@H](C)C[C@H](N(C)C)[C@H]2O)[C@](C)(O)C[C@@H](C)C(=O)[C@H](C)[C@@H](O)[C@]1(C)O` [erythromycin], the Effect result is listed as “Additive” in experiment [3] (EKO-35 mdtEF Pore, NMP + antibiotic); “Synergistic” in [3] (setting [8]); “Additive (additive (FICI >0.5-1.0))” in experiment [3] (strain EKO-35 mdtEF Pore, NMP + antibiotic); “Additive” in [4] (setting [9]); “Synergistic” in experiment [4] (setting [10]); “Additive (additive (FICI >0.5-1.0))” in experiment [4] (setting [11]). In addition, the Effect result in experiment [5] (setting [12]) is “Additive”; in experiment [5] (setting [13]) it was “Synergistic”; in experiment [5] (setting [14]), “Additive (additive (FICI >0.5-1.0))”. For the same compound, the FICI in experiment [3] (setting [8]) amounted to 0.185; in experiment [4] (setting [9]) it was 0.750; in experiment [4] (setting [10]), 0.385; in experiment [4] (setting [11]), 0.750; in [5] (setting [12]) it was 0.565; in experiment [5] (setting [13]), 0.385. The FICI in experiment [5] (setting [14]) is 0.565. The “MICb Alone” value in experiment [3] (EKO-35 mdtEF Pore, antibiotic alone (PAβN checkerboard)) is 1 µg/mL; in experiment [3] (strain EKO-35 mdtEF Pore, antibiotic alone), 8 µg/mL; in [4] (EKO-35 acrEF Pore, antibiotic alone (PAβN checkerboard)) it was 0.5 µg/mL; in experiment [4] (strain EKO-35 acrEF Pore, antibiotic alone) it was 1 µg/mL; in [5] (EKO-35 mexCD Pore, antibiotic alone (PAβN checkerboard)) it was 0.5 µg/mL; in experiment [5] (strain EKO-35 mexCD Pore, antibiotic alone) it was 2 µg/mL. Further, the “MICb Combined” value in experiment [3] (EKO-35 mdtEF Pore, antibiotic in combination with PAβN) was determined as 0.06 µg/mL; in experiment [3] (strain EKO-35 mdtEF Pore, antibiotic in combination with NMP), 1 µg/mL; in experiment [4] (EKO-35 acrEF Pore, antibiotic in combination with PAβN), 0.13 µg/mL; in experiment [4] (strain EKO-35 acrEF Pore, antibiotic in combination with NMP), 0.5 µg/mL; in experiment [5] (EKO-35 mexCD Pore, antibiotic in combination with PAβN), 0.13 µg/mL; in [5] (strain EKO-35 mexCD Pore, antibiotic in combination with NMP), 0.13 µg/mL. The “interaction of PAβN in combination with the labelled antibiotic (FICI)” value in [2] is recorded as “still observed”.
In the case of “phenylalanine-arginine-β-naphthylamide [PAβN]”, the “PABN MICa Alone” value in experiment [3] (EKO-35 mdtEF Pore, PAβN alone, one value per checkerboard) was 64 µg/mL; in experiment [2] (EKO-35 acrD Pore, PAβN alone, one value per checkerboard, listed as PABN), 32 µg/mL and 64 µg/mL; in experiment [4] (EKO-35 acrEF Pore), 64 µg/mL; in experiment [4] (EKO-35 acrEF Pore, listed as PABN), 128 µg/mL; in [5] (EKO-35 mexCD Pore, PAβN alone, one value per checkerboard), 64 µg/mL. The “PABN MICa Combined” value in [3] (EKO-35 mdtEF Pore, with Erythromycin) came to 32 µg/mL; in experiment [3] (EKO-35 mdtEF Pore, with Fusidic Acid), 8 µg/mL; in experiment [2] (EKO-35 acrD Pore, with Fusidic Acid) it was 8 µg/mL; in experiment [2] (EKO-35 acrD Pore, with Novobiocin), 16 µg/mL; in experiment [2] (EKO-35 acrD Pore, with Oxacillin) it was 16 µg/mL; in experiment [4] (EKO-35 acrEF Pore, with Ciprofloxacin), 16 µg/mL. The “PABN MICa Combined” value stood at 16 µg/mL in experiment [4] (EKO-35 acrEF Pore, with Erythromycin); 8 µg/mL in [4] (EKO-35 acrEF Pore, with Fusidic Acid); 32 µg/mL in experiment [4] (EKO-35 acrEF Pore, with Oxacillin); 16 µg/mL in experiment [5] (EKO-35 mexCD Pore, with Ciprofloxacin); 8 µg/mL in [5] (EKO-35 mexCD Pore, with Erythromycin).

The values above are taken from US20230407243A1, “GENETIC PLATFORM TO INVESTIGATE THE FUNCTIONS OF BACTERIAL DRUG EFFLUX PUMPS” (priority 2022, published 2023).
